Like-named read-outs stand apart in the source and are kept apart here. Each block holds one compound with its values, some of them ahead of it.
Tests used:
Lin− CD34+CB HSPCs = assay: High throughput screen of CYP family inhibitors for in vitro HSPC expansion
Description: FIG. 16: Primary screen for inhibitors of Cytochrome […] oxidases and promotion of in vitro HSPC expansion by primitive marker expression. 1000 flow sorted Lin− CD34+CB HSPCs were plated per well of a 96-well plate and test compounds were added at three doses (0.1 uM, 1.0 uM, 10 uM) in triplicate. Cell cultures were refreshed with medium every 3 days and at day 10 cells were counted and assessed for CD34 marker expression. […] Columns marked by “x” have a >2-fold increase compared to DMSO. Columns marked by “o” show at least a 1.5-fold increase compared to DMSO control. […] Data shown as mean+/−SEM from n=3 cultures.
FIG. 17: Primary screen for inhibitors of Cytochrome […] oxidases and promotion of in vitro HSPC expansion by total number CD34 marked cells. 1000 flow sorted Lin− CD34+CB HSPCs were plated per well of a 96-well plate and test compounds were added at three doses (0.1 uM, 1.0 uM, 10 uM) in triplicate. Cell cultures were refreshed with medium every 3 days and at day 10 cells were counted and assessed for CD34 marker expression. […] Columns marked by “x” have a >2-fold increase compared to DMSO. Columns marked by “o” show at least a 1.5-fold increase compared to DMSO control. […] Data shown as mean+/−SEM from n=3 cultures.
A screening approach was undertaken that tested the function of 3 alkaloid, 9 coumarin, and 17 flavonoid based compounds ([…], Table 1). The screening approach used 96-well plates seeded with 1000 FACS-purified CD34+ cells and treatment with 3 concentrations of each compound performed in triplicate culture wells (9 wells total per compound). Cells were cultured for 10 days and resultant growth was measured for cell number and surface marker expression by automated flow cytometer (MACS Quant).

Lin− CD34+ cells [1] = assay: MSI2 OE and control suspension cultures with AHR antagonist SR1; type: cell-based, human; conditions: SR1 750 nM vs DMSO, 10 days
Description: GFP^+ cells were isolated (20,000 cells per culture) and allowed to proliferate with or without SR1 for an additional 7 days at which point they were counted and immunophenotyped for CD34 and CD133 expression. […] GFP^+ cells were isolated (20,000 cells per culture) and allowed to proliferate with FICZ (200 nM; Santa Cruz Biotechnology) or DMSO (0.1%) for an additional 3 days at which point they were immunophenotyped for CD34 and CD133 expression.

AHR = AHR ChIP-seq comparison to downregulated gene sets; set-up: species or system human; conditions: ChIP-seq-identified AHR targets; SR1 500 nM, UM171 35 nM gene sets
Description: Percentage of down regulated genes with AHR bound regions was then graphed for each gene set. P-values were generated with Fisher's exact test between gene lists.

Lin− CD34+ cells [2] = assay: HSPC expansion with TMS; type: cell-based, human; conditions: TMS 10 μM vs 0.1% DMSO, during culture
Description: Lin^− CD34^+ cells were cultured for 72 hours (lentiviral treated but non-transduced flow-sorted GFP^− cells) in StemSpan medium containing growth factors IL-6 (20 ng/ml), SCF (100 ng/ml), FLT3-L (100 ng/ml) and TPO (20 ng/ml) before the addition of the CYP1B1 inhibitor TMS (Abcam) at a concentration of 10 μM or mock treatment with 0.1% DMSO. Equal numbers of cells (12,000 per condition) were then allowed to proliferate for 7 days at which point they were counted and immunophenotyped for CD34 and CD133 expression.

CYP enzymes = conditions: cited from earlier work
[3] = summary statement referring to the Examples

Structure (SMILES): O=c1cc(-c2ccccc2)oc2cc(O)cc(O)c12 [Chrysin, 5,7-Dihydroxy-2-phenyl-4H-chromen-4-one]
- self-renewal and expansion of hematopoietic stem and progenitor cell cultures (Lin− CD34+CB HSPCs): promote the self-renewal and expansion

Structure (SMILES): CC(C)n1cnc2c(NCCc3ccc(O)cc3)nc(-c3csc4ccccc34)nc21 [SR1, StemRegenin 1]
- increase in percentage of CD34+ cells (Lin− CD34+ cells [1]; MSI2 OE cultures): 4 fold
- increase in percentage of CD34+ cells (Lin− CD34+ cells [1]; control transduced cultures): 8 fold
- enrichment of direct transcriptional targets of AHR in downregulated gene set compared to UM171 (AHR): 5.6 fold

- self-renewal and expansion of hematopoietic stem and progenitor cell cultures (Lin− CD34+CB HSPCs; [3]): promote the self-renewal and expansion
Structure (SMILES): COc1ccc(-c2cc(=O)c3c(O)cc(O)cc3o2)cc1 [Acacetin, 5,7-dihydroxy-2-(4-methoxyphenyl)-4H-1-benzopyran-4-one]

- % CD34+ at day 10 relative to DMSO (Lin− CD34+CB HSPCs; 1000 CD34+ cells per well, 0.1, 1.0, 10 uM, 10 days): > 2 fold
- self-renewal and expansion of hematopoietic stem and progenitor cell cultures (Lin− CD34+CB HSPCs; [3]): promote the self-renewal and expansion
Structure (SMILES): COc1cc(/C=C/c2ccc(OC)cc2OC)cc(OC)c1 [TMS, (E)-2,3′,4,5′-Tetramethoxystilbene]
- increase in frequency of CD34+ cells (Lin− CD34+ cells [2]): 1.5 fold
- increase in total numbers of CD34+ cells (Lin− CD34+ cells [2]): 2 fold

- self-renewal and expansion of hematopoietic stem and progenitor cell cultures (Lin− CD34+CB HSPCs; [3]): promote the self-renewal and expansion
Structure (SMILES): O=C1CC(c2ccc(O)cc2)Oc2cc(O)cc(O)c21 (centres unmarked) [Naringenin, 5,7-Dihydroxy-2-(4-hydroxyphenyl)chroman-4-one]

Structure (SMILES): O=c1c(-c2ccc(O)cc2)coc2cc(O)ccc12 [Daidzein, 7-Hydroxy-3-(4-hydroxyphenyl) chromen-4-one]
- IC50 (CYP enzymes): 7.9 µM

Reference: patent US20190209618A1, “METHODS AND COMPOSITIONS FOR EXPANSION OF HEMATOPOIETIC STEM AND/OR PROGENITOR CELLS EMPLOYING A CYTOCHROME P450 1B1 (CYP1B1) INHIBITOR OR A MUSASHI-2 (MSI2) ACTIVATOR” (McMaster University, priority 2016, published 2019)
